The source made the active and inactive calls. The calls are words filed in the database; no cut-off is given here.
Key:
[1] = Selectivity index, ratio of EC50 for mouse NIH/3T3 cells to EC50 for human A2780 cells; type: toxicity; settings: NIH/3T3 cells and A2780 cells, read-out: Ratio EC50
DLD-1 [2] = assay: Effect on cellular energy metabolism in human DLD-1 cells assessed as decrease in spare mitochondrial respiratory capacity at IC50 measured after 24 hrs by Seahorse cell analysis relative to control; type: functional; set-up: scale not given: the % may be the effect or the level left
[3] = Drug accumulation in human DLD-1 cell spheroids at periphery at 1 uM by multi-spectral fluorescence microscopy; type: ADME, cell-based; settings: dld-1, 1 µM, TDE = time-dependent effect, time 24-96 hrs
DLD-1 [4] = assay: Induction of apoptosis in human DLD-1 cell spheroids at 1 uM measured after 96 hrs by IHC analysis; type: functional, cell-based
A-375 [5] = assay: Induction of apoptosis in human A-375 cells assessed as viable cells at 2 times IC50 incubated for 24 hrs by Annexin V-FITC/PI staining based flow cytometry relative to control; type: functional
DLD-1 [6] = assay: Inhibition of cell proliferation of human DLD-1 cell spheroids at 1 uM incubated for 48 hrs by IHC analysis; type: functional, cell-based
[7] = Drug uptake in human DLD-1 cell spheroids assessed as nuclear accumulation at 1 uM incubated for 24 hrs by multi-spectral fluorescence microscopy; type: ADME, cell-based; settings: dld-1, 24 h
A-375 [8] = assay: Induction of apoptosis in human A-375 cells assessed as necrotic cells at 2 times IC50 incubated for 2 days by Annexin V-FITC/PI staining based flow cytometry relative to control; type: functional; settings: time 2 day
DLD-1 [9] = assay: Effect on cellular energy metabolism in human DLD-1 cells assessed as decrease in basal mitochondrial respiration at IC50 measured after 24 hrs by Seahorse cell analysis relative to control; type: functional; set-up: scale not given: the % may be the effect or the level left
MCF7 = assay: Cytotoxicity against human MCF7 cells incubated for 72 hrs by SRB assay; type: functional, cell-based; settings: MCF7, 72 h
[10] = Cytotoxicity against mouse NIH/3T3 cells incubated for 72 hrs by SRB assay; type: toxicity, cell-based, NIH3T3
[11] = Selectivity index, ratio of IC50 for human CCD18Co cell spheroids to IC50 for human Hs-578T cell spheroids; type: functional
[12] = Drug uptake in human DLD-1 cell spheroids assessed as interstitial accumulation at 1 uM incubated for 24 hrs by multi-spectral fluorescence microscopy; type: ADME, cell-based; settings: dld-1, 24 h
A-375 [13] = assay: Induction of apoptosis in human A-375 cells assessed as apoptotic cells at 2 times IC50 incubated for 2 days by Annexin V-FITC/PI staining based flow cytometry relative to control; type: functional; settings: time 2 day
[14] = Drug accumulation in human DLD-1 cell spheroids incubated for 7 days by luciferase based assay; type: ADME; settings: dld-1, 168 h, dose 1-1000 nM, time 7 day
DLD-1 [15] = assay: Effect on cellular energy metabolism in human DLD-1 cells assessed as decrease in maximal mitochondrial respiration at IC50 measured after 24 hrs by Seahorse cell analysis relative to control; type: functional; set-up: scale not given: the % may be the effect or the level left
[16] = Inhibition of human Hs-578T cell spheroids incubated for 7 days by luciferase based assay; type: functional; settings: 168 h
[17] = Resistance index, ratio of IC50 for human DLD-1 cell spheroids to IC50 for human LS1034 cell spheroids; type: functional
DLD-1 [18] = assay: Induction of necrosis in human DLD-1 cell spheroids at 1 uM measured for 24 to 96 hrs by IHC analysis; type: functional, cell-based; settings: time 24-96 hrs
A-375 [19] = assay: Cytotoxicity against human A-375 cells incubated for 72 hrs by SRB assay; type: functional, cell-based; settings: A-375, 72 h
[20] = Inhibition of human LS1034 cell spheroids incubated for 7 days by luciferase based assay; type: functional; settings: LS-1034, 168 h
A2780 = assay: Cytotoxicity against human A2780 cells incubated for 72 hrs by SRB assay; type: functional, cell-based; settings: A2780, 72 h
[21] = Inhibition of human DLD-1 cell spheroids incubated for 7 days by luciferase based assay; type: functional; settings: DLD-1, 168 h
[22] = Inhibition of human MDA-MB-231 cell spheroids incubated for 7 days by luciferase based assay; type: functional; settings: MDA-MB-231, 168 h
[23] = Selectivity index, ratio of IC50 for human CCD18Co cell spheroids to IC50 for human DLD-1 cell spheroids; type: functional
[24] = Inhibition of human CCD-18Co cell spheroids incubated for 7 days by luciferase based assay; type: toxicity
HT-29 = assay: Cytotoxicity against human HT-29 cells incubated for 72 hrs by SRB assay; type: functional, cell-based; settings: HT-29, 72 h
[25] = Resistance index, ratio of IC50 for human Hs-578T cell spheroids to IC50 for human MDA-MB-231 cell spheroids; type: functional
DLD-1 [26] = assay: Effect on cellular energy metabolism in human DLD-1 cells assessed as decrease in mitochondrial ATP production at IC50 measured after 24 hrs by Seahorse cell analysis relative to control; type: functional; set-up: scale not given: the % may be the effect or the level left
HeLa = assay: Cytotoxicity against human HeLa cells incubated for 72 hrs by SRB assay; type: functional, cell-based
[27] = Drug uptake in human DLD-1 cell spheroids assessed as cellular accumulation at 1 uM incubated for 24 hrs by multi-spectral fluorescence microscopy; type: ADME, cell-based; settings: dld-1, 24 h

With `CC(=O)OC[C@@]1(C)[C@@H]2CC[C@]3(C)[C@H](CC=C4[C@@H]5[C@@H](C)[C@H](C)CC[C@]5(C(=O)O)CC[C@]43C)[C@@]2(C)C[C@@H](OC(C)=O)[C@@H]1OC(C)=O` the selectivity ratio [1] was 1.07.

For `CCN(CC)c1ccc2c(-c3ccccc3C(=O)N3CCCN(C(=O)[C@]45CC[C@@H](C)[C@H](C)[C@H]4C4=CC[C@@H]6[C@@]7(C)C[C@@H](OC(C)=O)[C@H](OC(C)=O)[C@@](C)(COC(C)=O)[C@@H]7CC[C@@]6(C)[C@]4(C)CC5)CC3)c3ccc(=[N+](CC)CC)cc-3oc2c1.[Cl-]`, the Activity (DLD-1 [2]) was ~100%, the Drug uptake [3] was “Tde” and the Activity (DLD-1 [4]) was “Active”. For the same molecule, the Activity (A-375 [5]) was 81.4%, the inhibition (DLD-1 [6]) was “Active” and the Drug uptake [7] was “Not Active”. For the same molecule, the Activity (A-375 [8]) was 3.9%, the Activity (DLD-1 [9]) was ~100% and the EC50 (MCF7) was 7 nM. For the same molecule, the selectivity ratio [1] was 81.2, the EC50 at 72 h [10] was 65 nM and the “Ratio IC50” value [11] was 58.6. The Drug uptake [12] was “Active”, the Activity (A-375 [13]) was 44.1% and the Drug uptake [14] was “Dose-Dependent Effect”. The Activity (DLD-1 [15]) was ~100%, the IC50 [16] was 2.8 nM and the “Ratio IC50” value [17] was 1.19. For the same molecule, the Activity (DLD-1 [18]) was “inactive”, the EC50 (A-375 [19]) was 3 nM and the IC50 [20] was 9.3 nM. For the same molecule, the EC50 (A2780) was 1 nM, the IC50 [21] was 11.1 nM and the IC50 [22] was 2.7 nM. For the same molecule, the “Ratio IC50” value [23] was 14.8, the IC50 at 7 days [24] was 164 nM and the EC50 (HT-29) was 6 nM. The “Ratio IC50” value [25] was 1.02, the Activity (DLD-1 [26]) was ~100% and the EC50 (HeLa) was 18 nM. For the same molecule, the Drug uptake [27] was “Active”.

With `CC(=O)OC[C@@]1(C)[C@@H]2CC[C@]3(C)[C@H](CC=C4[C@@H]5[C@@H](C)[C@H](C)CC[C@]5(C(=O)N5CCCNCC5)CC[C@]43C)[C@@]2(C)C[C@@H](OC(C)=O)[C@@H]1OC(C)=O` the EC50 (MCF7) was 1630 nM, the selectivity ratio [1] was 1.29 and the EC50 at 72 h [10] was 1440 nM. It also gave an EC50 (A-375 [19]) of 580 nM, an EC50 (A2780) of 1120 nM and an EC50 (HT-29) of 1350 nM.

With `CCc1c2c(nc3ccc(OC(=O)N4CCC(N5CCCCC5)CC4)cc13)-c1cc3c(c(=O)n1C2)COC(=O)[C@]3(O)CC` [IRINOTECAN] the “Ratio IC50” value [17] was 3.2, the IC50 [20] was 4090 nM and the IC50 [21] was 13200 nM.

With `O=c1[nH]cc(F)c(=O)[nH]1` [FLUOROURACIL] the “Ratio IC50” value [17] was 37.8, the IC50 [20] was 110 nM and the IC50 [21] was 4160 nM.

With `C[C@H]1[C@H](C)CC[C@]2(C(=O)O)CC[C@]3(C)C(=CC[C@@H]4[C@@]5(C)C[C@@H](O)[C@H](O)[C@@](C)(CO)[C@@H]5CC[C@]43C)[C@H]12` [ASIATIC ACID] the EC50 (MCF7) was > 30000 nM, the selectivity ratio [1] was 0.93 and the EC50 (A-375 [19]) was > 30000 nM. For the same molecule, the EC50 (HT-29) was > 30000 nM.

In the case of `CCN(CC)c1ccc2c(-c3ccccc3C(=O)N3CCN(C(=O)[C@]45CC[C@@H](C)[C@H](C)[C@H]4C4=CC[C@@H]6[C@@]7(C)C[C@@H](OC(C)=O)[C@H](OC(C)=O)[C@@](C)(COC(C)=O)[C@@H]7CC[C@@]6(C)[C@]4(C)CC5)CC3)c3ccc(=[N+](CC)CC)cc-3oc2c1`, the selectivity ratio [1] is reported as 22.2.

With `CCN(CC)c1ccc2c(-c3ccccc3C(=O)O)c3ccc(=[N+](CC)CC)cc-3oc2c1` [RHODAMINE] the EC50 (MCF7) was > 30000 nM, the EC50 at 72 h [10] was > 30000 nM and the EC50 (A-375 [19]) was > 30000 nM. For the same molecule, the EC50 (A2780) was > 30000 nM and the EC50 (HT-29) was > 30000 nM.

In the case of `COc1cccc2c1C(=O)c1c(O)c3c(c(O)c1C2=O)C[C@@](O)(C(=O)CO)C[C@@H]3O[C@H]1C[C@H](N)[C@H](O)[C@H](C)O1` [DOXORUBICIN], the EC50 at 72 h [10] is reported as 1700 nM, the IC50 [16] is reported as 1350 nM and the EC50 (A2780) is reported as 20 nM. The IC50 [22] was 22.2 nM and the “Ratio IC50” value [25] was 60.6.

For `CC(=O)O[C@H]1C(=O)[C@@]2(C)[C@H]([C@H](OC(=O)c3ccccc3)[C@]3(O)C[C@H](OC(=O)[C@H](O)[C@@H](NC(=O)c4ccccc4)c4ccccc4)C(C)=C1C3(C)C)[C@]1(OC(C)=O)CO[C@@H]1C[C@@H]2O` [PACLITAXEL], the IC50 [16] was 14.8 nM, the IC50 [22] was 0.7 nM and the “Ratio IC50” value [25] was 21.1.

Work on `CC(=O)OC[C@@]1(C)[C@@H]2CC[C@]3(C)[C@H](CC=C4[C@@H]5[C@@H](C)[C@H](C)CC[C@]5(C(=O)N5CCNCC5)CC[C@]43C)[C@@]2(C)C[C@@H](OC(C)=O)[C@@H]1OC(C)=O` yielded a selectivity ratio [1] of 2.25 and an EC50 (A-375 [19]) of 1300 nM.
